Experiments:
RAW264.7 [1] = assay: Antiinflammatory activity in mouse RAW264.7 cells assessed as inhibition of LPS-induced IL-6 production; format: functional, cell-based
RAW264.7 [2] = assay: Antiinflammatory activity in mouse RAW264.7 cells assessed as inhibition of LPS-induced TNF-alpha production; format: functional, cell-based
RAW264.7 [3] = assay: Antiinflammatory activity in mouse RAW264.7 cells assessed as inhibition of LPS-induced IL-1beta production; format: functional, cell-based
Hepatocyte [4] = assay: Hepatoprotective activity against CCL4-induced rat hepatocyte toxicity assessed as decrease in ALT level at 1 uM preincubated for 30 mins followed by CCL4 addition and measured after 180 mins by colorimetric method; format: functional; set-up: scale not given: the % may be the effect or the level left; details: time 210 min
Hepatocyte [5] = assay: Hepatoprotective activity against CCL4-induced rat hepatocyte toxicity assessed as decrease in IL-1beta level at 1 uM preincubated for 30 mins followed by CCL4 addition and measured after 180 mins by ELISA; format: functional; set-up: scale not given: the % may be the effect or the level left; details: time 210 min
Hepatocyte [6] = assay: Hepatoprotective activity against CCL4-induced rat hepatocyte toxicity assessed as decrease in TNF-alpha level at 1 uM preincubated for 30 mins followed by CCL4 addition and measured after 180 mins by ELISA; format: functional; set-up: scale not given: the % may be the effect or the level left; details: time 210 min
Hepatocyte [7] = assay: Hepatoprotective activity against CCL4-induced rat hepatocyte toxicity assessed as decrease in TBARS level by measuring MDA formation at 1 uM preincubated for 30 mins followed by CCL4 addition and measured after 180 mins by TBARS method; format: functional; set-up: scale not given: the % may be the effect or the level left; details: time 210 min
RAW264.7 [8] = assay: Antiinflammatory activity in mouse RAW264.7 cells assessed as inhibition of LPS-induced TNFalpha production at 10 uM preincubated for 2 hrs followed by LPS stimulation and measured after 24 hrs by ELISA; format: functional; details: time 26 hrs
RAW264.7 [9] = assay: Antiinflammatory activity in mouse RAW264.7 cells assessed as inhibition of LPS-induced NO production at 30 uM preincubated for 2 hrs followed by LPS stimulation and measured after 24 hrs by Griess method; format: functional; details: time 26 hrs
RAW264.7 [10] = assay: Antiinflammatory activity in mouse RAW264.7 cells assessed as inhibition of LPS-induced IL-6 production at 30 uM preincubated for 2 hrs followed by LPS stimulation and measured after 24 hrs by ELISA; format: functional; details: time 26 hrs
RAW264.7 [11] = assay: Antiinflammatory activity in mouse RAW264.7 cells assessed as inhibition of LPS-induced TNFalpha production at 100 uM preincubated for 2 hrs followed by LPS stimulation and measured after 24 hrs by ELISA; format: functional; details: time 26 hrs
RAW264.7 [12] = assay: Antiinflammatory activity in mouse RAW264.7 cells assessed as inhibition of LPS-induced IL-6 production at 10 uM preincubated for 2 hrs followed by LPS stimulation and measured after 24 hrs by ELISA; format: functional; details: time 26 hrs
RAW264.7 [13] = assay: Antiinflammatory activity in mouse RAW264.7 cells assessed as inhibition of LPS-induced TNFalpha production at 30 uM preincubated for 2 hrs followed by LPS stimulation and measured after 24 hrs by ELISA; format: functional; details: time 26 hrs
RAW264.7 [14] = assay: Antiinflammatory activity in mouse RAW264.7 cells assessed as inhibition of LPS-induced TNFalpha production at 3 uM preincubated for 2 hrs followed by LPS stimulation and measured after 24 hrs by ELISA; format: functional; details: time 26 hrs
RAW264.7 [15] = assay: Antiinflammatory activity in mouse RAW264.7 cells assessed as inhibition of LPS-induced NO production at 100 uM preincubated for 2 hrs followed by LPS stimulation and measured after 24 hrs by Griess method; format: functional; details: time 26 hrs
RAW264.7 [16] = assay: Antiinflammatory activity in mouse RAW264.7 cells assessed as inhibition of LPS-induced NO production at 3 uM preincubated for 2 hrs followed by LPS stimulation and measured after 24 hrs by Griess method; format: functional; details: time 26 hrs
RAW264.7 [17] = assay: Antiinflammatory activity in mouse RAW264.7 cells assessed as inhibition of LPS-induced IL-6 production at 3 uM preincubated for 2 hrs followed by LPS stimulation and measured after 24 hrs by ELISA; format: functional; details: time 26 hrs
RAW264.7 [18] = assay: Antiinflammatory activity in mouse RAW264.7 cells assessed as inhibition of LPS-induced NO production at 10 uM preincubated for 2 hrs followed by LPS stimulation and measured after 24 hrs by Griess method; format: functional; details: time 26 hrs
RAW264.7 [19] = assay: Antiinflammatory activity in mouse RAW264.7 cells assessed as inhibition of LPS-induced IL-6 production at 100 uM preincubated for 2 hrs followed by LPS stimulation and measured after 24 hrs by ELISA; format: functional; details: time 26 hrs
RAW264.7 [20] = assay: Antiinflammatory activity in mouse RAW264.7 cells assessed as inhibition of KLA-induced TNFalpha expression at 0.06 mg/ml and measured after 24 hrs by ELISA; format: functional
BV-2 = assay: Antiinflammatory activity in mouse BV-2 cells assessed as inhibition of LPS-induced NO production at 10 uM preincubated for 1 hrs followed by LPS stimulation and measured after 24 hrs by Griess assay; format: functional; details: time 25 hrs
[21] = Cytotoxicity against mouse RAW264.7 cells assessed as reduction in cell viability by MTT assay; format: toxicity, cell-based
RAW264.7 [22] = assay: Antiinflammatory activity in mouse RAW264.7 cells assessed as inhibition of LPS-induced NO production preincubated for 0.5 hrs followed by LPS stimulation and measured after 24 hrs by Griess reagent based analysis; format: functional, cell-based
[23] = Antioxidant activity assessed as nitroblue tetrazolium superoxide radical scavenging activity by spectrophotometric analysis; format: functional
[24] = Antioxidant activity assessed as nitroblue tetrazolium superoxide radical scavenging activity incubated for 10 mins by spectrophotometric analysis; format: functional
J774.1 [25] = assay: Antiinflammatory activity in mouse J774.1 cells assessed as inhibition of LPS-induced NO production at 100 microg/ml; format: functional
J774.1 [26] = assay: Antiinflammatory activity in mouse J774.1 cells assessed as inhibition of LPS-induced NO production incubated for 48 hrs by Griess reagent based analysis; format: functional, cell-based; details: Mus musculus, J774.1, 48 h
J774.1 [27] = assay: Cytotoxicity in mouse J774.1 cells assessed as reduction in cell viability at 100 microg/ml; format: toxicity, cell-based; details: at 100 µg/mL

SMILES: COc1cc2cc(c1O)-c1cc(ccc1O)CC[C@H](OS(=O)(=O)O)CCCC2
- IC50 (RAW264.7 [1]): 22.7 µM
- IC50 (RAW264.7 [2]): 20.1 µM
- IC50 (RAW264.7 [3]): 22.9 µM

SMILES: COc1cc(CC[C@@H](CCCCc2cc(O)c(O)c(O)c2)OC(C)=O)cc(OC)c1O
- Activity (Hepatocyte [4]): 61.1%
- Activity (Hepatocyte [5]): 63.6%
- Activity (Hepatocyte [6]): 38.6%
- Activity (Hepatocyte [7]): 67.1%

SMILES: COc1cc([C@H]2C[C@H](O)C[C@@H]([C@@H](O)Cc3ccc(O)cc3)O2)ccc1O
- inhibition at 10 µM (RAW264.7 [8]): 41%
- inhibition at 30 µM (RAW264.7 [9]): 34%
- inhibition at 30 µM (RAW264.7 [10]): 40%
- inhibition at 100 µM (RAW264.7 [11]): 41%
- inhibition at 10 µM (RAW264.7 [12]): 40%
- inhibition at 30 µM (RAW264.7 [13]): 41%
- inhibition at 3 µM (RAW264.7 [14]): 41%
- inhibition at 100 µM (RAW264.7 [15]): 34%
- inhibition at 3 µM (RAW264.7 [16]): 34%
- inhibition at 3 µM (RAW264.7 [17]): 40%
- inhibition at 10 µM (RAW264.7 [18]): 34%
- inhibition at 100 µM (RAW264.7 [19]): 40%

SMILES: COc1cc2cc(c1O)-c1cc(ccc1O)CC[C@H](O)CCCC2
- IC50 (RAW264.7 [1]): 20.3 µM
- IC50 (RAW264.7 [2]): 19.5 µM
- IC50 (RAW264.7 [3]): 17.9 µM

SMILES: O=C(CCc1ccccc1)C[C@@H](O)/C=C/c1ccccc1
- inhibition at 60 µg/mL (RAW264.7 [20]): 37%

SMILES: COC(=O)[C@@H](N)CCCNC(=N)N[N+](=O)[O-] [L-NAME]
- inhibition at 10 µM (BV-2): 70.5%

SMILES: O=C(/C=C/C=C/c1ccc(O)c(O)c1)CCc1ccc(O)c(O)c1
- IC50 [21]: 36.4 µM
- IC50 (RAW264.7 [22]): 8.6 µM

SMILES: COc1cc(CC[C@H](O)C[C@H](O)[C@@H](O)Cc2ccc(O)cc2)ccc1O
- inhibition at 10 µM (RAW264.7 [8]): 39%
- inhibition at 30 µM (RAW264.7 [9]): 43%
- inhibition at 30 µM (RAW264.7 [10]): 57%
- inhibition at 100 µM (RAW264.7 [11]): 39%
- inhibition at 10 µM (RAW264.7 [12]): 57%
- inhibition at 30 µM (RAW264.7 [13]): 39%
- inhibition at 3 µM (RAW264.7 [14]): 39%
- inhibition at 100 µM (RAW264.7 [15]): 43%
- inhibition at 3 µM (RAW264.7 [16]): 43%
- inhibition at 3 µM (RAW264.7 [17]): 57%
- inhibition at 10 µM (RAW264.7 [18]): 43%
- inhibition at 100 µM (RAW264.7 [19]): 57%

SMILES: Oc1ccc(CC[C@@H](O)C[C@H](O)CCc2ccc(O)cc2)cc1 [(+)-HANNOKINOL]
- inhibition at 10 µM (BV-2): 51.3%

SMILES: Oc1ncnc2[nH]ncc12 [ALLOPURINOL]
- IC50 [23]: 8 µM
- IC50 [24]: 3.9 µM

SMILES: O=C(/C=C/c1ccc(O)c(O)c1)CC/C=C/c1ccc(O)c(O)c1
- IC50 [21]: 9 µM
- IC50 (RAW264.7 [22]): 2.9 µM

SMILES: COc1cc(O)c([C@@H](/C=C/C[C@@H](O)CCc2ccc(O)cc2)c2ccc(O)cc2)c(O)c1C(=O)/C=C/c1ccc(O)cc1
- inhibition at 100 µg/mL (J774.1 [25]): 90%
- IC50 (J774.1 [26]): 39 µM
- Activity (J774.1 [27]): 85%

SMILES: COc1cc(O)c([C@H](/C=C/C[C@@H](O)CCc2ccc(O)cc2)c2ccc(O)cc2)c(O)c1C(=O)/C=C/c1ccc(O)cc1
- inhibition at 100 µg/mL (J774.1 [25]): 90%
- IC50 (J774.1 [26]): 84 µM
- Activity (J774.1 [27]): 85%

SMILES: COc1cc(CC[C@H](O)C[C@H](O)[C@@H](O)Cc2ccc(O)c(OC)c2)ccc1O
- inhibition at 10 µM (RAW264.7 [8]): 34%
- inhibition at 30 µM (RAW264.7 [9]): 39%
- inhibition at 30 µM (RAW264.7 [10]): 43%
- inhibition at 100 µM (RAW264.7 [11]): 34%
- inhibition at 10 µM (RAW264.7 [12]): 43%
- inhibition at 30 µM (RAW264.7 [13]): 34%
- inhibition at 3 µM (RAW264.7 [14]): 34%
- inhibition at 100 µM (RAW264.7 [15]): 39%
- inhibition at 3 µM (RAW264.7 [16]): 39%
- inhibition at 3 µM (RAW264.7 [17]): 43%
- inhibition at 10 µM (RAW264.7 [18]): 39%
- inhibition at 100 µM (RAW264.7 [19]): 43%
